# Experimental data: patent US8859572B2, “Sulfone substituted 2,3-dihydroimidazo [1,2-C] quinazoline derivatives useful for treating hyper-proliferative disorders and diseases with angiogenesis” (Bayer Intellectual Property GmbH, priority 2008, dated 2014)
# Target: T1, PI3Kβ (recombinant truncated form (ΔN1-108) of the human p110β subunit of PI3K) (Homo sapiens, UniProt P42338)
# T1 construct: His6 (N); made in house; host or cells: Spodoptera frugiperda Sf9 insect cells
# Assay: Solid-phase lipid kinase assay of PI3Kβ
# Type: biochemical
# Conditions: 7.5 ng protein/well, final 10 μM ATP, 2 h at rt
# Description: To assess inhibition of PI3Kα by compounds, the Maxisorp™ plates were coated with 50 μL/well of a solution containing 50 μg/ml PtdIns and 50 μg/ml PtdSer dissolved in chloroform:ethanol (3:7). The plates were subsequently air-dried by incubation for at least 2 h in a fume hood. The reaction was set up by mixing 25 μL/well of assay buffer 2×(100 mM MOPSO/NaOH, 0.2 M NaCl, pH 7.0, 8 mM MgCl2, 2 mg/mL BSA (fatty acid-free)), and 7.5 ng/well PI3Kα in the lipid pre-coated plate. Test compounds at different concentrations (0.0, 0.003, 0.01 0.03, 0.1, 0.3, 1.0, 3.0 and 10 μM) were added in 2% DMSO. The reaction was initiated by adding 20 μL/well of ATP mix (final 10 μM ATP; 0.05 μCi/well [γ^33P]ATP). After incubation at rt for 2 h, the reaction was terminated by adding 50 μl/well stop solution (50 mM EDTA, pH 8.0). The plate was then washed twice with Tris-buffered saline (TBS, pH 7.4). MicroScint PS™ (PACKARD) scintillation mix was added at 100 μL/well, and radioactivity was counted using a TopCount™ (PACKARD) scintillation counter.
# The inhibition percent at each concentration of compound was calculated, and IC50 values were determined from the inhibition of curve.
# A recombinant truncated form (ΔN1-108) of the human p110β subunit of PI3K with an N-terminal His6-Tag was expressed in S. frugiperda 9 insect cells. Recombinant human PI3Kγ (full length human PI3K p110γ fused with a His6-tag at the C-terminus expressed in S. frugiperda 9 insect cells) was obtained from ALEXIS BIOCHEMICALS (#201-055-0010; San Diego, Calif.).
# Kinase assays using recombinant truncated p110β or the full length p110γ were performed in a similar manner as described in the determination of IC50 values of compounds in the kinase assay of PI3Kα except that these isoforms were assayed using 7.5 ng and 25.0 ng of protein/well, respectively.
# T1 sequence (P42338 109-1070): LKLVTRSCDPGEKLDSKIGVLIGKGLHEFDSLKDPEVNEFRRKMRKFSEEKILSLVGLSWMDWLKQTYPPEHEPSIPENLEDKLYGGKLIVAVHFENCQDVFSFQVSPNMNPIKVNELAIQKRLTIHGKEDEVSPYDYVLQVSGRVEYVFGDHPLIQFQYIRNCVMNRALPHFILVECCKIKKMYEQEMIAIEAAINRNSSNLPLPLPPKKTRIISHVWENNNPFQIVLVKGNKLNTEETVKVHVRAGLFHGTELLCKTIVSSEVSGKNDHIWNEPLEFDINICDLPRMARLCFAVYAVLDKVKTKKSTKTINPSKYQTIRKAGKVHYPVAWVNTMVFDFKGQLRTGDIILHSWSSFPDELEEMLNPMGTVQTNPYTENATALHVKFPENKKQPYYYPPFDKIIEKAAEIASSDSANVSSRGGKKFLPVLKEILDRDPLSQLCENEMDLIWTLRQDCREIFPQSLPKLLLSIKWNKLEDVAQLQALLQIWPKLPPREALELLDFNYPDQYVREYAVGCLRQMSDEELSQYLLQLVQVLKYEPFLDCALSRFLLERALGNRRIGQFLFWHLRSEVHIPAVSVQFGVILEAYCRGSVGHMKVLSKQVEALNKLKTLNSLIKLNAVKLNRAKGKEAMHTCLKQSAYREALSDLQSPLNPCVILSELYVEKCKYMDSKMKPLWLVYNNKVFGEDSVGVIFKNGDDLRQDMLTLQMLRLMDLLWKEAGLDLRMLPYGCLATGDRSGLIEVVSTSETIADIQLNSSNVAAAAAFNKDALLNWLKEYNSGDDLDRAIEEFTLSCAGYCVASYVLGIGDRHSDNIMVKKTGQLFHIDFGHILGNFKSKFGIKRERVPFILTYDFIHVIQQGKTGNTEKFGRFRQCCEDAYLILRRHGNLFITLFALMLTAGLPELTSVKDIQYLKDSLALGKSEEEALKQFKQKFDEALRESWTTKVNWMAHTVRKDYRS
row,Compound,IC50 [nM]
1,"COc1c(OCCCS(=O)(=O)N(C)C)ccc2c1N=C(NC(=O)c1cccnc1)N1CCN=C21 [Example 5, N-(8-{3-[(dimethylamino)sulfonyl]propoxy}-7-methoxy-2,3-dihydroimidazo[1,2-c]quinazolin-5-yl)nicotinamide]",< 100
2,"O=C(NC1=Nc2c(OCCCN3CCS(=O)(=O)CC3)cccc2C2=NCCN12)c1cccnc1 [Example 9, N-{7-[3-(1,1-dioxidothiomorpholin-4-yl)propoxy]-2,3 dihydroimidazo[1,2-c]quinazolin-5-yl}nicotinamide]",100 to 3000
3,"CN1CCN(S(=O)(=O)CCCOc2cccc3c2N=C(NC(=O)c2cccnc2)N2CCN=C32)CC1 [Example 8, N-(7-{3-[(4-methylpiperazin-1-yl)sulfonyl]propoxy}-2,3-dihydroimidazo[1,2-c]quinazolin-5-yl)nicotinamide]",100 to 3000
4,O=C(NC1=Nc2c(ccc(OCCCN3CCOCC3)c2OCCCS(=O)(=O)N2CCOCC2)C2=NCCN12)c1cccnc1 [Example 12],< 100
5,"CCN(CC)S(=O)(=O)CCCOc1c(OCCCN2CCOCC2)ccc2c1N=C(NC(=O)c1cccnc1)N1CCN=C21 [Example 14, N-[7-{3-[(Diethylamino)sulfonyl]propoxy}-8-(3-morpholin-4-ylpropoxy)-2,3-dihydroimidazo[1,2-c]quinazolin-5-yl]nicotinamide]",< 100
6,"COc1c(OCCCS(=O)(=O)N2CCOCC2)ccc2c1N=C(NC(=O)c1ccc(N)nc1)N1CCN=C21 [Example 22, 6-amino-N-{7-methoxy-8-[3-(morpholin-4-ylsulfonyl)propoxy]-2,3-dihydroimidazo[1,2-c]quinazolin-5-yl}nicotinamide]",< 100
7,"CN1CCN(S(=O)(=O)CCCOc2c(OCCCN3CCOCC3)ccc3c2N=C(NC(=O)c2cccnc2)N2CCN=C32)CC1 [Example 13, N-[7-{3-[(4-methylpiperazin-1-yl)sulfonyl]propoxy}-8-(3-morpholin-4-ylpropoxy)-2,3-dihydroimidazo[1,2-c]quinazolin-5-yl]nicotinamide]",< 100
8,"CN(C)S(=O)(=O)CCCOc1c(OCCCN2CCOCC2)ccc2c1N=C(NC(=O)c1cccnc1)N1CCN=C21 [Example 15, N-[7-{3-[(dimethylamino)sulfonyl]propoxy}-8-(3-morpholin-4-ylpropoxy)-2,3-dihydroimidazo[1,2-c]quinazolin-5-yl]nicotinamide]",< 100
9,"CCN(CC)S(=O)(=O)CCCOc1ccc2c(c1OC)N=C(NC(=O)c1cccnc1)N1CCN=C21 [Example 6, N-(8-{3-[(diethylamino)sulfonyl]propoxy}-7-methoxy-2,3-dihydroimidazo[1,2-c]quinazolin-5-yl)nicotinamide]",< 100
10,"COc1c(OCCCS(=O)(=O)N(C)C)ccc2c1N=C(NC(=O)c1ccc(N)nc1)N1CCN=C21 [Example 18, 6-amino-N-(8-{3-[(dimethylamino)sulfonyl]propoxy}-7-methoxy-2,3-dihydroimidazo[1,2-c]quinazolin-5-yl)nicotinamide]",< 100
11,"COc1c(OCc2ccc(S(C)(=O)=O)cc2)ccc2c1N=C(NC(=O)c1cccnc1)N1CCN=C21 [Example 2, N-(7-methoxy-8-{[4-(methylsulfonyl)benzyl]oxy}-2,3-dihydroimidazo[1,2-c]quinazolin-5-yl)nicotinamide]",100 to 3000
12,"CS(=O)(=O)c1ccc(COc2cccc3c2N=C(NC(=O)c2cccnc2)N2CCN=C32)cc1 [Example 10, N-(7-{[4-(methylsulfonyl)benzyl]oxy}-2,3-dihydroimidazo[1,2-c]quinazolin-5-yl)nicotinamide]",< 100
13,"COc1c(OCCCN2CCS(=O)(=O)CC2)ccc2c1N=C(NC(=O)c1cccnc1)N1CCN=C21 [Example 4, N-{8-[3-(1,1-dioxidothiomorpholin-4-yl)propoxy]-7-methoxy-2,3-dihydroimidazo[1,2-c]quinazolin-5-yl}nicotinamide]",< 100
14,"COc1c(OCCCS(=O)(=O)N(C)C)ccc2c1N=C(NC(=O)c1cnc(N)nc1)N1CCN=C21 [Example 17, 2-amino-N-(8-{3-[(dimethylamino)sulfonyl]propoxy}-7-methoxy-2,3-dihydroimidazo[1,2-c]quinazolin-5-yl)pyrimidine-5-carboxamide]",< 100
15,"O=C(NC1=Nc2c(OCCCS(=O)(=O)N3CCOCC3)cccc2C2=NCCN12)c1cccnc1 [Example 7, N-{7-[3-(morpholin-4-ylsulfonyl)propoxy]-2,3-dihydroimidazo[1,2-c]quinazolin-5-yl}nicotinamide]",100 to 3000

# Results, then the compound that gave them:
row,IC50 [nM],Compound
1,< 100,CCCS(=O)(=O)NCCOCCOc1ccc2c(c1OC)N=C(NC(=O)c1cccnc1)N1CCN=C21 [Example 32]
2,< 100,"CS(=O)(=O)c1ccc(COc2c(OCCCN3CCOCC3)ccc3c2N=C(NC(=O)c2cccnc2)N2CCN=C32)cc1 [Example 36, N-[7-{[4-(methylsulfonyl)benzyl]oxy}-8-(3-morpholin-4-ylpropoxy)-2,3-dihydroimidazo[1,2-c]quinazolin-5-yl]nicotinamide]"
3,< 100,"CCS(=O)(=O)NCCCOc1ccc2c(c1OC)N=C(NC(=O)c1cccnc1)N1CCN=C21 [Example 35, N-(8-[3-[(ethylsulfonyl)amino]propoxy]-7-methoxy-2,3-dihydroimidazo[1,2-c]quinazolin-5-yl)nicotinamide]"
4,100 to 3000,"O=C(NC1=Nc2cc(OCCCS(=O)(=O)N3CCOCC3)ccc2C2=NCCN12)c1cncnc1 [Example 28, N-{8-[3-(morpholin-4-ylsulfonyl)propoxy]-2,3-dihydroimidazo[1,2-c]quinazolin-5-yl}pyrimidine-5-carboxamide]"
5,< 100,"CS(=O)(=O)Oc1c(OCCCN2CCOCC2)ccc2c1N=C(NC(=O)c1cccnc1)N1CCN=C21 [Example 37, 8-(3-morpholin-4-ylpropoxy)-5-[(pyridin-3-ylcarbonyl)amino]-2,3-dihydroimidazo[1,2-c]quinazolin-7-yl methanesulfonate]"
6,100 to 3000,"CN1CCN(S(=O)(=O)CCCOc2ccc3c(c2)N=C(NC(=O)c2cccnc2)N2CCN=C32)CC1 [Example 25, N-(8-{3-[(4-methylpiperazin-1-yl)sulfonyl]propoxy}-2,3-dihydroimidazo[1,2-c]quinazolin-5-yl)nicotinamide]"
7,< 100,"COc1c(OCCOCCNS(C)(=O)=O)ccc2c1N=C(NC(=O)c1cccnc1)N1CCN=C21 [Example 31, N-[7-methoxy-8-(2-{2-[(methylsulfonyl)amino]ethoxy}ethoxy)-2,3-dihydroimidazo[1,2-c]quinazolin-5-yl]nicotinamide]"
8,100 to 3000,"Nc1ccc(C(=O)NC2=Nc3cc(OCCCS(=O)(=O)N4CCOCC4)ccc3C3=NCCN23)cn1 [Example 30, 6-amino-N-{8-[3-(morpholin-4-ylsulfonyl)propoxy]-2,3-dihydroimidazo[1,2-c]quinazolin-5-yl}nicotinamide]"
9,< 100,"COc1c(OCCOCCNS(=O)(=O)c2ccc(C)cc2)ccc2c1N=C(NC(=O)c1cccnc1)N1CCN=C21 [Example 34, N-{7-methoxy-8-[2-(2-{[(4-methylphenyl)sulfonyl]amino}ethoxy)ethoxy]-2,3-dihydroimidazo[1,2-c]quinazolin-5-yl}nicotinamide]"
10,< 100,"COc1c(OCCOCCNS(=O)(=O)c2ccccc2)ccc2c1N=C(NC(=O)c1cccnc1)N1CCN=C21 [Example 33, N-[7-methoxy-8-(2-{2-[(phenylsulfonyl)amino]ethoxy}ethoxy)-2,3-dihydroimidazo[1,2-c]quinazolin-5-yl]nicotinamide]"
11,100 to 3000,"CS(=O)(=O)c1ccc(COc2ccc3c(c2)N=C(NC(=O)c2cccnc2)N2CCN=C32)cc1 [Example 26, N-(8-{[4-(methylsulfonyl)benzyl]oxy}-2,3-dihydroimidazo[1,2-c]quinazolin-5-yl)nicotinamide]"
12,100 to 3000,"O=C(NC1=Nc2cc(OCCCS(=O)(=O)N3CCOCC3)ccc2C2=NCCN12)c1cccnc1 [Example 24, N-{8-[3-(morpholin-4-ylsulfonyl)propoxy]-2,3-dihydroimidazo[1,2-c]quinazolin-5-yl}nicotinamide]"
13,100 to 3000,"Cc1nc(C)c(C(=O)NC2=Nc3cc(OCc4ccc(S(C)(=O)=O)cc4)ccc3C3=NCCN23)s1 [Example 27, 2,4-dimethyl-N-(8-{[4-(methylsulfonyl)benzyl]oxy}-2,3-dihydroimidazo[1,2-c]quinazolin-5-yl)-1,3-thiazole-5-carboxamide]"
14,< 100,"COc1c(OCCCS(=O)(=O)N2CCOCC2)ccc2c1N=C(NC(=O)c1cnc(N)nc1)N1CCN=C21 [Example 23, 2-amino-N-{7-methoxy-8-[3-(morpholin-4-ylsulfonyl)propoxy]-2,3-dihydroimidazo[1,2-c]quinazolin-5-yl}pyrimidine-5-carboxamide]"
